Assay [1] deals with 661W or C6 cells. The assay is described as follows: MTT assay: protection against calcium-ionophore A23187. The format is cell-based. As to conditions: for viability at 0.1 µM: 100 nM compound; for viability at 1 µM: 1 μM compound; for viability at 0.5 µM: 500 nM compound; for viability at 0.0008 µM: 800 pM compound. As to the method: The compound 3-(4,5-Dimethylthiazol-2-yl)-2,5-diphenyltetrazolium bromide (MTT) is a tetrazolium ion that is reduced to a blue formazan dye via several families of NAD(P)H-dependent oxidoreductases. Formation of the formazan dye from MTT or other related tetrazolium dyes are commonly used as a viability assay even though, in fact, the assay is a metabolic capacity assay.
In this assay, 661W or C6 cells were maintained in DMEM supplemented with 10% FBS. 100 μl, of 70,000 cells/mL cells were seeded into each well of 96 well plates using DMEM supplemented with 5% FBS. Cells were then allowed to grow to confluency for 48 hours. The compounds of the invention were added in 2 μL media and calcium-ionophore A23187 was then added in 1 μL for a final concentration of 1 μM and after 24 h, 20 uL of 2 μg/mL MTT were added to each well and the cells were incubated for another 4 h after which 100 μL of 1% SDS in 0.01 M aqueous HCl were added to each well and the plates were incubated overnight. Absorbance was measured at 640 and 570 nM (background correction). The 1 μM ionophore A23187 caused about 50% loss in MTT signal at 24 h. Protection was calculated as the increase in absorbance of treatment groups normalized to the vehicle control.
(In general: Tetrazolium dyes change colour on reduction, which living cells bring about.)

Assay [2] concerns 661W or C6 cells. The assay is described as follows: XF FCCP-uncoupled oxygen consumption rate assay (IBMX treatment). The format is cell-based. As to conditions: for activity at 1 µM: 1 uM compound. The protocol: The XF FCCP-uncoupled oxygen consumption rate assay assesses mitochondrial capacity by measuring cellular respiration. It was shown that the maximum FCCP-uncoupled oxygen consumption rate (OCR) was a good estimate of maximal mitochondrial capacity (Beeson 2010) and that IBMX treatment of 661W or C6 cells for 24 h caused a loss in maximal uncoupled OCR (Perron 2013). Thus, cells were pretreated with the exemplified compounds for 1 h, added 600 μM IBMX and then measured the uncoupled rate after 24 h. The OCR measurements were performed using a Seahorse Bioscience XF instrument (Seahorse Bioscience, Billerica, Md.), as previously published (Perron 2013). O2 leakage through the plastic sides and bottom of the plate was accounted for using the AKOS algorithm in the XF software package. Cells were plated on 96- or 24-well custom plates designed for use in the XF and grown to confluency in DMEM+5% FBS (48 h). The medium was then replaced with DMEM+1% FBS for 24 h, along with any treatments.

Where [3] appears, read: 1 μM A23187, 24 h, read-out: MTT Protection (%, concentration).
Setting [4] is: 1 h pretreatment, 600 μM IBMX, 24 h, read-out: XF FCCP OCR (% Ctrl, concentration).

14 compounds from patent US9850218B2, “Thiazole compounds, compositions and methods for treatment of degenerative diseases and disorders” (MUSC FOUNDATION FOR RESEARCH DEVELOPMENT, priority 2013, dated 2017) can be followed below.

Take `O=C(Nc1ccc(F)cc1)c1sc(-c2ccccc2)nc1-c1ccccc1` [Example 4, N-(4-fluorophenyl)-2,4-diphenylthiazole-5-carboxamide]: in the assay on 661W or C6 cells [1] (setting [3]), the viability at 0.1 µM was found to be 64.1%. In addition, the activity at 1 µM in the assay with 661W or C6 cells [2] (setting [4]) was 83%.
As for `CCOC(=O)c1sc(-c2ccccn2)nc1-c1ccccc1` [Example 7, Ethyl 4-phenyl-2-(pyridin-2-yl)thiazole-5-carboxylate], in the assay with 661W or C6 cells [1] (setting [3]), the viability at 1 µM is 88%. Moreover, the activity at 1 µM in the assay with 661W or C6 cells [2] (setting [4]) is 75%.
With `COCCN(C)C(=O)c1sc(-c2ccccc2)nc1-c1ccccc1` [Example 6, N-(2-methoxyethyl)-N-methyl-2,4-diphenylthiazole-5-carboxamide], in the assay on 661W or C6 cells [1] (setting [3]), the viability at 0.1 µM came out at 78.4%. In addition, in the assay with 661W or C6 cells [2] (setting [4]), the activity at 1 µM worked out at 81%.
On the same counts, the results for `O=C(O)c1sc(-c2ccccc2)nc1-c1ccccc1` [Example 2, 2,4-Diphenylthiazole-5-carboxylic acid] are 40% and 77%.
As for `CCOC(=O)c1sc(-c2ccccc2)nc1-c1ccccn1` [Example 9, Ethyl 2-phenyl-4-(pyridin-2-yl)thiazole-5-carboxylate], the viability at 10 µM in the assay with 661W or C6 cells [1] (10 μM compound, 1 μM A23187, 24 h, read-out: MTT Protection (%, concentration)) was 98%. In addition, in the assay on 661W or C6 cells [2] (10 uM compound, 1 h pretreatment, 600 μM IBMX, 24 h, read-out: XF FCCP OCR (% Ctrl, concentration)), the activity at 10 µM was determined as 71%.
On to `CCOC(=O)c1sc(-c2ccncc2)nc1-c1ccccc1` [Example 10, Ethyl 4-phenyl-2-(pyridin-4-yl)thiazole-5-carboxylate], for which the viability at 0.5 µM with 661W or C6 cells [1] (setting [3]) is 88%. The activity at 1 µM with 661W or C6 cells [2] (setting [4]) is 70%.
Turning to `O=C(O)c1sc(-c2ccccn2)nc1-c1ccccc1` [Example 11, 4-Phenyl-2-(pyridin-2-yl)thiazole-5-carboxylic acid], in the assay with 661W or C6 cells [1] (setting [3]), the viability at 0.5 µM came to 71.7%. Moreover, the activity at 1 µM with 661W or C6 cells [2] (setting [4]) turned out to be 76%.
Turning to `O=C(Nc1ccccc1Nc1ccccc1)c1sc(-c2ccccn2)nc1-c1ccccc1` [Example 12, 4-Phenyl-N-(2-(phenylamino)phenyl)-2-(pyridin-2-yl)thiazole-5-carboxamide], the viability at 0.0008 µM in the assay on 661W or C6 cells [1] (setting [3]) stood at 57.2%. The activity at 1 µM with 661W or C6 cells [2] (setting [4]) stood at 71%.
`CC(C)Cn1c(=O)n(C)c(=O)c2[nH]cnc21` [IBMX, reference compound]: the “decrease in the uncoupled rate” value in the assay with 661W or C6 cells [2] (IBMX treatment alone (600 μM, 24 h)) is roughly 50%.
For `O=C(Nc1ccccc1)c1sc(-c2ccccc2)nc1-c1ccccc1` [Example 3, N,2,4-Triphenylthiazole-5-carboxamide], the viability at 1 µM with 661W or C6 cells [1] (setting [3]) was 47%. The activity at 1 µM in the assay with 661W or C6 cells [2] (setting [4]) turned out to be 72%.
As to `CCOC(=O)c1sc(-c2ccccc2)nc1-c1ccccc1` [Example 1, Ethyl 2,4-diphenylthiazole-5-carboxylate], in the assay with 661W or C6 cells [1] (setting [3]), the viability at 0.1 µM is 48%. In addition, the activity at 1 µM with 661W or C6 cells [2] (setting [4]) was 71%.
As to `COc1ccc(NC(=O)c2sc(-c3ccccc3)nc2-c2ccccc2)cc1` [Example 8, N-(4-methoxyphenyl)-2,4-diphenylthiazole-5-carboxamide], the viability at 0.0008 µM in the assay with 661W or C6 cells [1] (setting [3]) was 67.3%. Further, the activity at 1 µM in the assay with 661W or C6 cells [2] (setting [4]) stood at 73%.
With `CNc1ccc2oc(C[C@H]3O[C@@]4(CC[C@H]3C)O[C@H]([C@H](C)C(=O)c3ccc[nH]3)[C@H](C)C[C@H]4C)nc2c1C(=O)O` [Example A23187, reference compound], the “loss in MTT signal” value in the assay with 661W or C6 cells [1] (1 μM ionophore A23187 alone, at 24 h) is “about 50%”.
In the case of `CCOC(=O)c1sc(-c2ccc(OC)cc2)nc1-c1ccccc1` [Example 5, Ethyl 2-(4-methoxyphenyl)-4-phenylthiazole-5-carboxylate], in the assay on 661W or C6 cells [1] (setting [3]), the viability at 0.1 µM amounted to 69%. For the same compound, the activity at 1 µM in the assay on 661W or C6 cells [2] (setting [4]) came to 82%.
